According to ChEMBL document CHEMBL4425184, “C15-methoxyphenylated 18-deoxy-herbimycin A analogues, their in vitro anticancer activity and heat shock protein 90 binding affinity” (Bioorg Med Chem Lett, 2016):
pIC50: −log10 of the molar value.

Columns and labels:
A-375 = experiment: Antiproliferative activity against human A375 assessed as reduction in cell viability measured after 96 hrs by MTT assay; assay type: functional, cell-based; conditions: A-375, 96 h
A2780 = experiment: Antiproliferative activity against human A2780 assessed as reduction in cell viability measured after 96 hrs by MTT assay; assay type: functional, cell-based; conditions: A2780, 96 h
BGC-823 = experiment: Antiproliferative activity against human BGC823 assessed as reduction in cell viability measured after 96 hrs by MTT assay; assay type: functional, cell-based; conditions: BGC-823, 96 h
[1] = biological target: T1, Heat shock protein HSP 90-alpha (Homo sapiens, UniProt P07900); experiment: Displacement of fluorescent labelled-VER00051001 from N-terminal ATP-binding site of human recombinant HSP90A expressed in Escherichia coli measured after 29 hrs by fluorescence polarization assay
[2] = biological target: T1, Heat shock protein HSP 90-alpha; experiment: Displacement of fluorescent labelled-VER00051001 from N-terminal ATP-binding site of human recombinant HSP90A expressed in Escherichia coli measured after 20 hrs by fluorescence polarization assay
SW1990 = experiment: Antiproliferative activity against human SW1990 assessed as reduction in cell viability measured after 96 hrs by MTT assay; assay type: functional, cell-based; conditions: SW1990, 96 h
[3] = biological target: T1, Heat shock protein HSP 90-alpha; experiment: Displacement of fluorescent labelled-VER00051001 from N-terminal ATP-binding site of human recombinant HSP90A expressed in Escherichia coli measured after 48 hrs by fluorescence polarization assay
[4] = biological target: T1, Heat shock protein HSP 90-alpha; experiment: Displacement of fluorescent labelled-VER00051001 from N-terminal ATP-binding site of human recombinant HSP90A expressed in Escherichia coli measured after 44 hrs by fluorescence polarization assay
MCF7 = experiment: Antiproliferative activity against human MCF7 assessed as reduction in cell viability measured after 96 hrs by MTT assay; assay type: functional, cell-based; conditions: MCF7, 96 h
HCT-116 = experiment: Antiproliferative activity against human HCT116 assessed as reduction in cell viability measured after 96 hrs by MTT assay; assay type: functional, cell-based; conditions: HCT-116, 96 h
[5] = biological target: T1, Heat shock protein HSP 90-alpha; experiment: Displacement of fluorescent labelled-VER00051001 from N-terminal ATP-binding site of human recombinant HSP90A expressed in Escherichia coli measured after 32 hrs by fluorescence polarization assay

SMILES	pIC50 (A-375)	pIC50 (A2780)	pIC50 (BGC-823)	pIC50 [1]	pIC50 [2]	pIC50 (SW1990)	pIC50 [3]	pIC50 [4]	pIC50 (MCF7)	pIC50 (HCT-116)	pIC50 [5]
COc1ccc([C@H]2c3cccc(c3O)NC(=O)/C(C)=C/CC[C@H](OC)[C@@H](OC(N)=O)/C(C)=C/[C@H](C)[C@@H](OC)[C@@H](OC)C[C@@H]2C)cc1	< 4.70	< 4.70	< 4.70	< 6.00	< 6.00	< 4.70	< 6.00	< 6.00	< 4.70	< 4.70	< 6.00
COc1ccc([C@H]2c3cccc(c3O)NC(=O)/C(C)=C/C=C\[C@H](OC)[C@@H](OC(N)=O)/C(C)=C/[C@H](C)[C@@H](O)[C@@H](OC)C[C@@H]2C)cc1	6.35	6.33	6.20	7.23	7.19	6.10	7.28	7.25	6.35	6.36	7.25
COc1ccc([C@H]2c3cccc(c3O)NC(=O)/C(C)=C/CC[C@H](OC)[C@@H](OC(N)=O)/C(C)=C/[C@H](C)[C@@H](O)[C@@H](OC)C[C@@H]2C)cc1	< 4.70	< 4.70	< 4.70	< 6.00	< 6.00	< 4.70	< 6.00	< 6.00	< 4.70	< 4.70	< 6.00
COc1ccc([C@H]2c3cccc(c3O)NC(=O)/C(C)=C/C=C\[C@H](OC)[C@@H](OC(N)=O)/C(C)=C/[C@H](C)[C@@H](OC)[C@@H](OC)C[C@@H]2C)cc1	5.59	5.62	5.19	6.99	6.92	5.47	7.01	7.01	5.02	5.20	7.00
CO[C@H]1/C=C\C=C(/C)C(=O)NC2=CC(=O)C=C(C2=O)[C@H](OC)[C@@H](C)C[C@H](OC)[C@H](O)[C@@H](C)/C=C(\C)[C@@H]1OC(N)=O [HERBIMYCIN C]	5.61	5.52	5.40	7.71	7.65	5.06	7.77	7.74	5.29	5.03	7.73
